Test results: patent publication US20110207694A1, “MAMMALIAN HYPOTHALAMIC NUTRIENT MODULATION OF GLUCOSE METABOLISM” (priority 2005, published 2011)

Legend:
Format in all cases: in vivo, rat
[1] = test system: Stearoyl-CoA Desaturase 1 (SCD1); assay: Liver SCD1 activity, SCD1 mRNA and LCFA-CoA measurements
Description: Treatment with SCD1 ASO. Five and two days before the lipoprotein secretion studies, rats received a single intra-peritoneal injection of either SCD1 or scrambled (SCR) ASO (100 mg/kg of body weight). […] In a separate set of studies, rats received intra-portal injection of either SCD1 or SCR ASO (40 mg/kg of body weight) (Gutierrez-Juarez et al., 2006) three days before the lipoprotein secretion studies.
Liver LCFA-CoA measurements. The liver was sampled and the LCFA-CoAs were extracted from the liver and measured by high-performance liquid chromatography (HPLC) as previously described (Lam et al., 2005c).
Stearoyl-CoA Desaturase 1 (SCD1) activity. CD1 activity assays were performed essentially as described (Cohen et al., 2002) using 1-[^14C]-stearoyl-CoA as a substrate. At the end of the reaction incubation long-chain acyl CoAs (LC Acyl-CoAs) were extracted and fractionated by reverse-phase HPLC as previously reported (Lam et al., 2005c). Chromatographically resolved stearoyl CoA (C18:0) and oleyl-CoA (C18:1) peaks were collected and counted in a β-scintillation counter. Protein was assayed by the bicinchoninic acid (BCA) method using a commercially available kit (Pierce Biotechnology, Rockford, Ill.) according to the manufacturer's instructions.
Gene expression. Stearoyl-CoA Desaturasel (SCD1) mRNA was measured by quantitative real-time PCR. Briefly, total RNA was extracted from either liver or fat tissue using the Trizol reagent (Invitrogen, Carlsbad, Calif.) according to the manufacturer instructions. cDNA was then synthesized from 2 μg of total RNA using the Superscript® III First-Strand kit TM? (Invitrogen, Carlsbad, Calif.). Samples of RNA in which the reverse transcriptase was omitted (no RT controls) were also included. The cDNA and no RT controls were diluted 1:20 with PCR grade water and 2 μl from each sample was used for PCR in a total volume of 20 μl. The FastStart DNA Master SYBR Green I kit (Roche Applied Science, Indianapolis, Ind.) and a LightCycler® 2 instrument (Roche Applied Science, Indianapolis, Ind.) were used in all experiments. Either 18S mRNA expression was routinely measured for normalization purposes. The primer sequences used were as follows: 5′-[…]-3′ and 5′-[…]-3′ for Scd1; and 5′-[…]-3′ and 5′-[…]-3′ for ribosomal 18S. The mRNA copy number was calculated from standard curves obtained using cloned target templates (plasmid DNA) of known copy number for each gene of interest.

[2] = test system: phospho-ACC, ACC, FAS, MTP and ApoB; assay: Western blot of liver proteins after ICV glucose
Description: Western blot analyses. Liver tissue (50-100 mg) was homogenized in a detergent-based lysis buffer (M-PER, Pierce) supplemented with protease and phosphatase inhibitors. The extracts were incubated on ice for 20 min and then centrifuged at 15,000×g to remove tissue debris; the supernatants were saved and frozen at −80 C until analysis. Fifty μg of protein were heat-denatured in SDS-PAGE sample buffer and resolved on denaturing (SDS) 10% polyacrylamide gels (SDS-PAGE). Fractionated proteins were electrophoretically transferred to nitrocellulose membranes by standard procedures. Membranes were immunoblotted with the appropriate primary antibodies and immune complexes were detected by enhanced chemiluminescence (ECL) (Western Lightning, Perkin Elmer Life Sciences) using horseradish peroxidase conjugated secondary antibodies. Bands were imaged on X-ray film and digitized for quantification using ImageQuant software (Molecular Dynamics). β-tubulin was used for loading normalization. Antibodies. Rabbit antibodies to acetyl Co-A carboxylase and phospho-acetyl Co-A carboxylase (Ser79) were from Cell Signaling Technology (Beverly, Mass.); fatty acid synthetase (FAS) and microsomal triglyceride transfer protein (MTP) antibodies were from BD Biosciences Pharmingen (San Jose, Calif.); cholesterol hydroxylase 7α (CYP7A1) and ApoB-100 antibodies were from Santa Cruz Biotechnology (Santa Cruz, Calif.); mouse monoclonal β-tubulin antibodies were obtained from Covance Research Products (Berkeley, Calif.).

mediobasal hypothalamus = assay: Intrahypothalamic (IH) infusion of glucose or DCA with pancreatic basal insulin clamp; details: IH administration
Excerpt: FIG. 3 is a diagram of experimental protocols (Panel (a)) and graphs of results of those experiments utilizing intrahypothalamic (IH) infusions of glucose.
FIG. 4 is a schematic and graphs of experimental results showing the effect of dichloroacetate (DCA), an inhibitor of pyruvate dehydrogenase kinase, having the effect of activating pyruvate dehydrogenase (PDH). The schematic of Panel (a) illustrates the PDH activation effect of DCA in the context of glucose metabolism, the TCA cycle, and nervous system cells.
We have localized the effect of glucose on liver glucose production to the mediobasal hypothalamus. This was accomplished using bilateral intraparenchymal (rather than ICY) delivery of both glucose and the KATP blocker GLI.

[3] = central administration of glucose

Structure (SMILES): O=C[C@H](O)[C@@H](O)[C@H](O)[C@H](O)CO [glucose, D-glucose]
- decrease in hepatic expression and activity of SCD1 ([1]; ICV glucose): ~70%
- hepatic desaturation index (oleyl-CoA over stearoyl-CoA) ([1]; ICV glucose): reduction in the hepatic desaturation index
- hepatic oleyl-CoA levels ([1]; ICV glucose): decreased the levels of oleyl-CoA
- hepatic stearoyl-CoA levels ([1]; ICV glucose): increasing those of stearoyl-CoA
- hepatic oleyl-CoA levels, desaturation index and SCD1 activity ([1]; after 1 h (60 min) of ICV glucose infusion): Significant decreases in hepatic oleyl-CoA levels, desaturation index, and SCD1 activity
- hepatic content of lipogenic enzymes acetyl-CoA carboxylase and fatty acid synthase ([2]; ICV glucose): failed to alter the hepatic content of these lipogenic enzymes
- expression of MTP in the liver [2, 3]: not affected
- hepatic ApoB48 levels [2, 3]: not decreased
- circulating glucose levels (mediobasal hypothalamus): lowered circulating glucose levels
- glucose production (mediobasal hypothalamus; clamp): suppressed liver glucose production
- glucose utilization (mediobasal hypothalamus; clamp): unchanged
- exogenous glucose infusion rate to maintain euglycemia (mediobasal hypothalamus; pancreatic basal insulin clamps): increased exogenous glucose infusion rate
